Experimental data as given in patent publication EP0349354A1, “Peptides PF10 to PF19 from a retro virus HIV, method for the synthesis of these peptides and their use, particularly in diagnostics” (INSTITUT PASTEUR, priority 1988, dated 1990).
Where no end group is shown, it is not given here. The star is where a group is joined. Acm = CC(=O)NC*

How the values were obtained:
[1] = test system: anticorps anti-protéine F; experiment: Western blot test on peptide spots with sera of HIV-1 infected patients; assay type: binding, humain; parameters: key to réaction avec sérum CHA 1/300, 10µl / réaction avec sérum LOM 1/100, 10µl / réaction avec sérum LOM 1/100, 5µl / réaction avec sérum CHA 1/300, 5µl / réaction avec sérum CHA 1/300, 2µl / réaction avec sérum CHA 1/300, 1µl / réaction avec sérum 1545 1/200, 10µl: ++ signifiant une réaction plus marquée
Method: Pour les besoins du test, les différents peptides PF16, PF19, PF13, PF17 utilisés sont dilués à une concentration de 2 mg/ml.
Sur une bande de papier BIORAD pour transblot, on dépose différents spots : 1µl, 2µl, 5µl, 10µl.
Après séchage on pratique un test Western Blot classique en utilisant comme anticorps des sérums de patients infectés par le virus HIV-1, positifs pour la protéine F, à des dilutions variant de 1/100 à 1/300.
Les peptides testés permettent d'aboutir aux résultats résumés dans le tableau 2 avec trois sérums différents anti-F ++ (++ signifiant une réaction plus marquée).

[2] = test system: anticorps, monoclonal anti-protéine F d'un rétrovirus HIV-1; experiment: ELISA with mouse monoclonal anti-protein F antibody; assay type: binding, souris; conditions: antibody produced in mouse
Source text: Par ailleurs, les inventeurs ont constaté qu'un anticorps, monoclonal anti-protéine F d'un rétrovirus HIV-1 produit chez la souris reconnait le peptide PF16 de l'invention dans un test ELISA.

anticorps anti-nef = experiment: ELISA for detection of anti-nef antibodies on coated peptides or nef; assay type: binding, humain

GMDDPEREVLEWRFDSRLAFHHVARELHPEYFKNC(acm) (GMDDPEREVLEWRFDSRLAFHHVARELHPEYFKNC(Acm)) [PF16, protéine F HIV-1, séquence 171-205]
réaction avec sérum 1545 1/200, 10µl ([1]; serum 1545 diluted 1/200, spot 10µl of peptide at 2 mg/ml): ++
réaction avec sérum CHA 1/300, 1µl ([1]; serum CHA diluted 1/300, spot 1µl of peptide at 2 mg/ml): ++
réaction avec sérum CHA 1/300, 2µl ([1]; serum CHA diluted 1/300, spot 2µl of peptide at 2 mg/ml): ++
réaction avec sérum CHA 1/300, 5µl ([1]; serum CHA diluted 1/300, spot 5µl of peptide at 2 mg/ml): ++
réaction avec sérum CHA 1/300, 10µl ([1]; serum CHA diluted 1/300, spot 10µl of peptide at 2 mg/ml): ++
réaction avec sérum LOM 1/100, 5µl ([1]; serum LOM diluted 1/100 (column outside the heading of positive sera), spot 5µl of peptide at 2 mg/ml): ++
réaction avec sérum LOM 1/100, 10µl ([1]; serum LOM diluted 1/100 (column outside the heading of positive sera), spot 10µl of peptide at 2 mg/ml): ++
reconnaissance par un anticorps monoclonal anti-protéine F [2]: reconnait
nombre de sérums anti-nef positifs ayant réagi (anticorps anti-nef; ELISA, out of 31 anti-nef positive sera): 26
intensité de l'immunoréactivité (OD), Serum 1 (anticorps anti-nef; Serum 1, anti-nef positive, 500 ng coated per well): +++ (pour OD = 0,8 à 2,0)
intensité de l'immunoréactivité (OD), Serum 2 (anticorps anti-nef; Serum 2, anti-nef positive, 500 ng coated per well): +++ (pour OD = 0,8 à 2,0)
intensité de l'immunoréactivité (OD), Serum 3 (anticorps anti-nef; Serum 3, anti-nef positive, 500 ng coated per well): + (pour OD = 0,2 à 0,4)
intensité de l'immunoréactivité (OD), Serum 4 (anticorps anti-nef; Serum 4, anti-nef positive, 500 ng coated per well): +++ (pour OD = 0,8 à 2,0)
intensité de l'immunoréactivité (OD), Serum 5 (anticorps anti-nef; Serum 5, anti-nef positive, 500 ng coated per well): +++ (pour OD = 0,8 à 2,0)
intensité de l'immunoréactivité (OD), Serum 6 (anticorps anti-nef; Serum 6, anti-nef positive, 500 ng coated per well): +++ (pour OD = 0,8 à 2,0)
intensité de l'immunoréactivité (OD), Serum 7 (anticorps anti-nef; Serum 7, anti-nef positive, 500 ng coated per well): - (pour une densité optique (OD) inférieure à 0,2)
intensité de l'immunoréactivité (OD), Serum 8 (anticorps anti-nef; Serum 8, anti-nef positive, 500 ng coated per well): - (pour une densité optique (OD) inférieure à 0,2)
intensité de l'immunoréactivité (OD), Serum 9 (anticorps anti-nef; Serum 9, anti-nef positive, 500 ng coated per well): - (pour une densité optique (OD) inférieure à 0,2)
intensité de l'immunoréactivité (OD), Serum 10 (anticorps anti-nef; Serum 10, anti-nef positive, 500 ng coated per well): + (pour OD = 0,2 à 0,4)
intensité de l'immunoréactivité (OD), Serum 11 (anticorps anti-nef; Serum 11, anti-nef positive, 500 ng coated per well): + (pour OD = 0,2 à 0,4)
intensité de l'immunoréactivité (OD), Serum 12 (anticorps anti-nef; Serum 12, anti-nef positive, 500 ng coated per well): - (pour une densité optique (OD) inférieure à 0,2)
intensité de l'immunoréactivité (OD), Serum 13 (anticorps anti-nef; Serum 13, anti-nef positive, 500 ng coated per well): ++ (pour OD = 0,4 à 0,8)
intensité de l'immunoréactivité (OD), Serum 14 (anticorps anti-nef; Serum 14, anti-nef positive, 500 ng coated per well): - (pour une densité optique (OD) inférieure à 0,2)
intensité de l'immunoréactivité (OD), Serum 15 (anticorps anti-nef; Serum 15, anti-nef positive, 500 ng coated per well): +++ (pour OD = 0,8 à 2,0)
intensité de l'immunoréactivité (OD), Serum 16 (anticorps anti-nef; Serum 16, anti-nef positive, 500 ng coated per well): +++ (pour OD = 0,8 à 2,0)
intensité de l'immunoréactivité (OD), Serum 17 (anticorps anti-nef; Serum 17, anti-nef positive, 500 ng coated per well): ++ (pour OD = 0,4 à 0,8)
intensité de l'immunoréactivité (OD), Serum 18 (anticorps anti-nef; Serum 18, anti-nef positive, 500 ng coated per well): +++ (pour OD = 0,8 à 2,0)
intensité de l'immunoréactivité (OD), Serum 19 (anticorps anti-nef; Serum 19, anti-nef positive, 500 ng coated per well): +++ (pour OD = 0,8 à 2,0)
intensité de l'immunoréactivité (OD), Serum 20 (anticorps anti-nef; Serum 20, anti-nef positive, 500 ng coated per well): ++ (pour OD = 0,4 à 0,8)
intensité de l'immunoréactivité (OD), Serum 21 (anticorps anti-nef; Serum 21, anti-nef positive, 500 ng coated per well): +++ (pour OD = 0,8 à 2,0)
intensité de l'immunoréactivité (OD), Serum 22 (anticorps anti-nef; Serum 22, anti-nef positive, 500 ng coated per well): +++ (pour OD = 0,8 à 2,0)
intensité de l'immunoréactivité (OD), Serum 23 (anticorps anti-nef; Serum 23, anti-nef positive, 500 ng coated per well): ++ (pour OD = 0,4 à 0,8)
intensité de l'immunoréactivité (OD), Serum 24 (anticorps anti-nef; Serum 24, anti-nef positive, 500 ng coated per well): +++ (pour OD = 0,8 à 2,0)
intensité de l'immunoréactivité (OD), Serum 25 (anticorps anti-nef; Serum 25, anti-nef positive, 500 ng coated per well): +++ (pour OD = 0,8 à 2,0)
intensité de l'immunoréactivité (OD), Serum 26 (anticorps anti-nef; Serum 26, anti-nef positive, 500 ng coated per well): +++ (pour OD = 0,8 à 2,0)
intensité de l'immunoréactivité (OD), Serum 27 (anticorps anti-nef; Serum 27, anti-nef positive, 500 ng coated per well): + (pour OD = 0,2 à 0,4)
intensité de l'immunoréactivité (OD), Serum 28 (anticorps anti-nef; Serum 28, anti-nef positive, 500 ng coated per well): ++ (pour OD = 0,4 à 0,8)
intensité de l'immunoréactivité (OD), Serum 29 (anticorps anti-nef; Serum 29, anti-nef positive, 500 ng coated per well): ++ (pour OD = 0,4 à 0,8)
intensité de l'immunoréactivité (OD), Serum 30 (anticorps anti-nef; Serum 30, anti-nef positive, 500 ng coated per well): ++ (pour OD = 0,4 à 0,8)
intensité de l'immunoréactivité (OD), Serum 31 (anticorps anti-nef; Serum 31, anti-nef positive, 500 ng coated per well): +++ (pour OD = 0,8 à 2,0)
intensité de l'immunoréactivité (OD), Serum 32 (anticorps anti-nef; Serum 32, anti-nef negative control serum, 500 ng coated per well): - (pour une densité optique (OD) inférieure à 0,2)
intensité de l'immunoréactivité (OD), Serum 33 (anticorps anti-nef; Serum 33, anti-nef negative control serum, 500 ng coated per well): - (pour une densité optique (OD) inférieure à 0,2)
